# According to ChEMBL document CHEMBL6153110, “Peptide Double-Stapling and Arginine N-Glycosylation Triggered the Development of Therapeutic Antimicrobial Peptides Capable of Killing Drug-Resistant Bacteria in Mice” (J Med Chem, 2025):
# Calls of active or inactive are those of the source. The calls are words filed in the database; no cut-off is given here. Positions of bridges follow the written chain, without caps; N, C: chain ends. Non-standard residues stand in square brackets, D forms with d. Residues, ends and D or L forms follow the SMILES beside them. Arg(Nω-βLac) = N=C(NCCC[C@H](N)C(=O)O)N[C@@H]1O[C@H](CO)[C@@H](O[C@@H]2O[C@H](CO)[C@H](O)[C@H](O)[C@H]2O)[C@H](O)[C@H]1O; S5 = C=CCCC[C@](C)(N)C(=O)O
# Assays:
# [1] = tested on: Staphylococcus aureus; test: Antimicrobial activity against methicillin-resistant Staphylococcus aureus ATCC 43300 assessed as growth inhibition measured after 8 hrs incubation by standard broth dilution assay; format: functional
# [2] = tested on: Pseudomonas aeruginosa; test: Antimicrobial activity against Pseudomonas aeruginosa ATCC 27853 assessed as growth inhibition measured after 8 hrs incubation by standard broth dilution assay; format: functional
# [3] = Hemolytic activity in BALB/c mouse red blood cells assessed as hemolysis incubated for 1 hrs; format: toxicity, cell-based, Erythrocyte; conditions: read-out: HD50
# [4] = tested on: Staphylococcus aureus; test: In vivo antibacterial activity against methicillin-resistant Staphylococcus aureus ATCC 43300 infected locally in full thickness skin wound mouse model assessed as reduction in inflammatory cells in wound at 4 mg/kg treated with absorbable gelatin sponge measured after 7 days; format: functional, organism-based; conditions: time 7.0 day
# [5] = tested on: Cell membrane; test: Binding affinity to Klebsiella pneumoniae ATCC 13883 cell membrane treated with FITC labelled peptides at MIC measured after 1.5 hr by CLSM imaging analysis; format: subcellular
# [6] = tested on: Cell membrane; test: Binding affinity to methicillin-resistant Staphylococcus aureus ATCC 43300 cell membrane treated with FITC labelled peptides at MIC measured after 1.5 hr by CLSM imaging analysis; format: subcellular
# [7] = tested on: Cell membrane; test: Induction of cell membrane damage in methicillin-resistant Staphylococcus aureus ATCC 43300 assessed as increase in red fluorescence at MIC measured after 1 hr incubation by PI based assay; format: subcellular
# [8] = tested on: Cell membrane; test: Induction of cell membrane damage in Klebsiella pneumoniae ATCC 13883 assessed as increase in red fluorescence at MIC measured after 1 hr incubation by PI based flow cytometry; format: subcellular
# [9] = tested on: Cell membrane; test: Induction of cell membrane damage in methicillin-resistant Staphylococcus aureus ATCC 43300 assessed as increase in red fluorescence at MIC measured after 1 hr incubation by PI based flow cytometry; format: subcellular
# [10] = tested on: Cell membrane; test: Induction of cell membrane damage in Klebsiella pneumoniae ATCC 13883 assessed as corrugation, blebbing, breakage, and fragmentation at MIC measured after 1 hr incubation by Scanning electron microscopy; format: subcellular
# [11] = tested on: Cell membrane; test: Induction of cell membrane damage in methicillin-resistant Staphylococcus aureus ATCC 43300 assessed as corrugation, blebbing, breakage, and fragmentation at MIC measured after 1 hr incubation by Scanning electron microscopy; format: subcellular
# [12] = tested on: Cell membrane; test: Induction of cell membrane damage in Klebsiella pneumoniae ATCC 13883 assessed as significant plasma membrane rupture, cytosolic membrane and outer membrane separation, and cytoplasmic leakage at MIC measured after 1 hr incubation by Transmission electron microscopy; format: subcellular
# [13] = tested on: Cell membrane; test: Induction of cell membrane damage in methicillin-resistant Staphylococcus aureus ATCC 43300 assessed as significant plasma membrane rupture, […], and cytoplasmic leakage at MIC measured after 1 hr incubation by Transmission electron microscopy; format: subcellular
# [14] = tested on: Klebsiella pneumoniae; test: Antibiofilm activity in Klebsiella pneumoniae ATCC 13883 assessed as prevention of biofilm formation at 0.5 to 4 times of MIC measured after 24 hrs by crystal violet staining based assay; format: functional, organism-based
# [15] = tested on: Staphylococcus aureus; test: Antibiofilm activity in methicillin-resistant Staphylococcus aureus ATCC 43300 assessed as prevention of biofilm formation at 0.5 to 4 times of MIC measured after 24 hrs by crystal violet staining based assay; format: functional, organism-based
# [16] = tested on: Klebsiella pneumoniae; test: Antibiofilm activity in Klebsiella pneumoniae ATCC 13883 assessed as reduction in biofilm formation at 4.6 ug/ml measured after 24 hrs by crystal violet staining based assay relative to control; format: functional; set-up: scale not given: the % may be the effect or the level left; conditions: dose 4.6 µg/ml
# [17] = tested on: Staphylococcus aureus; test: Antibacterial activity against methicillin-resistant Staphylococcus aureus ATCC 43300 assessed as reduction in bacterial count at 4.6 ug/ml in bio-film adjusted BM2 medium; format: functional, organism-based; conditions: dose 4.6 µg/ml
# [18] = Toxicity in mouse assessed as inflammatory infiltration at 40 mg/kg, sc by H and E staining based assay; format: organism-based; conditions: in vivo
# [19] = tested on: Staphylococcus aureus; test: In vivo antibacterial activity against methicillin-resistant Staphylococcus aureus ATCC 43300 infected locally in full thickness skin wound mouse model assessed as clean and less exudate at 1 mg/kg treated with absorbable gelatin sponge measured on early healing stage; format: functional, organism-based; conditions: route id
# [20] = tested on: Staphylococcus aureus; test: In vivo antibacterial activity against methicillin-resistant Staphylococcus aureus ATCC 43300 infected locally in full thickness skin wound mouse model assessed as reduced skin damage by promoting wound healing at 4 mg/kg treated with absorbable gelatin sponge measured on early healing stage; format: functional, organism-based; conditions: route id
# [21] = tested on: Staphylococcus aureus; test: In vivo antibacterial activity against methicillin-resistant Staphylococcus aureus ATCC 43300 infected locally in full thickness skin wound mouse model assessed as reduction in bacterial load in skin wound at 4 mg/kg treated with absorbable gelatin sponge measured after 3 days; format: functional, organism-based; conditions: time 3.0 day
# [22] = tested on: Staphylococcus aureus; test: In vivo antibacterial activity against methicillin-resistant Staphylococcus aureus ATCC 43300 infected locally in full thickness skin wound mouse model assessed as reduction in bacterial load in skin wound at 4 mg/kg treated with absorbable gelatin sponge measured after 7 days; format: functional, organism-based; conditions: time 7.0 day
# [23] = tested on: Staphylococcus aureus; test: In vivo antibacterial activity against methicillin-resistant Staphylococcus aureus ATCC 43300 infected locally in full thickness skin wound mouse model assessed as reduction in bacterial load in skin wound at 1 mg/kg treated with absorbable gelatin sponge measured after 7 days; format: functional, organism-based; conditions: time 7.0 day
# [24] = tested on: Staphylococcus aureus; test: In vivo antibacterial activity against methicillin-resistant Staphylococcus aureus ATCC 43300 infected locally in full thickness skin wound mouse model assessed as decrease in edema and ulcerative tissue in wound at 4 mg/kg treated with absorbable gelatin sponge measured after 7 days; format: functional, organism-based; conditions: time 7.0 day
# [25] = tested on: Klebsiella pneumoniae; test: In vivo antibacterial activity against Klebsiella pneumoniae ATCC 13883 induced bacterial pneumonia mouse model assessed as reduction in bacterial load in lungs at 1 mg/kg, injected into trachea after 24 hrs of infection measured after 3 to 7 days; format: functional, organism-based
# [26] = tested on: Klebsiella pneumoniae; test: In vivo antibacterial activity against Klebsiella pneumoniae ATCC 13883 induced bacterial pneumonia mouse model assessed as reduction in bacterial load in lungs at 4 mg/kg, injected into trachea after 24 hrs of infection measured after 3 to 7 days; format: functional, organism-based
# [27] = tested on: Klebsiella pneumoniae; test: In vivo antibacterial activity against Klebsiella pneumoniae ATCC 13883 induced bacterial pneumonia mouse model assessed as reduction in bacterial infection induced weight loss at 4 mg/kg, injected into trachea after 24 hrs of infection measured after 3 to 7 days; format: functional, organism-based
# [28] = tested on: Klebsiella pneumoniae; test: In vivo antibacterial activity against Klebsiella pneumoniae ATCC 13883 induced bacterial pneumonia mouse model assessed as increase in survival of mouse at 1 mg/kg, injected into trachea after 24 hrs of infection measured after 3 to 7 days; format: functional, organism-based
# [29] = tested on: Klebsiella pneumoniae; test: In vivo antibacterial activity against Klebsiella pneumoniae ATCC 13883 induced bacterial pneumonia mouse model assessed as reduction in bacterial infection induced IL-1beta level in lung tissue at 4 mg/kg, injected into trachea after 24 hrs of infection measured after 3 to 7 days; format: functional, organism-based
# [30] = tested on: Klebsiella pneumoniae; test: In vivo antibacterial activity against Klebsiella pneumoniae ATCC 13883 induced bacterial pneumonia mouse model assessed as reduction in bacterial infection induced TNF-alpha level in lung tissue at 4 mg/kg, injected into trachea after 24 hrs of infection measured after 3 to 7 days; format: functional, organism-based
# [31] = tested on: Klebsiella pneumoniae; test: In vivo antibacterial activity against Klebsiella pneumoniae ATCC 13883 induced bacterial pneumonia mouse model assessed as reduction in bacterial infection induced TNF-alpha mRNA expression in lung tissue at 4 mg/kg, injected into trachea after 24 hrs of infection measured after 3 to 7 days; format: functional, organism-based
smiles,measurement,setting,value
"CC(=O)N[C@@H](CCCCN)C(=O)N[C@@H](CCCCN)C(=O)N[C@@H](CCCNC(=N)N)C(=O)N[C@H](C(=O)N[C@@H](CCCCN)C(=O)N[C@@H](CCCCN)C(=O)N[C@@H](CCCNC(=N)N)C(=O)N[C@@]1(C)CCC/C=C\CCC[C@@](C)(C(=O)N[C@@H](CCCCN)C(=O)N[C@@]2(C)CCC/C=C\CCC[C@@](C)(C(=O)N[C@@H](CC(C)C)C(=O)N[C@@H](CCCCN)C(=O)N[C@@H](CCCCN)C(=O)N3CCC[C@H]3C(=O)N[C@H](C(=O)N[C@@H](CCCNC(=N)N[C@@H]3O[C@H](CO)[C@@H](O[C@@H]4O[C@H](CO)[C@H](O)[C@H](O)[C@H]4O)[C@H](O)[C@H]3O)C(N)=O)C(C)C)NC(=O)[C@H](CCCNC(=N)N)NC(=O)[C@H](Cc3c[nH]c4ccccc34)NC(=O)[C@H](Cc3ccc(O)cc3)NC2=O)NC(=O)[C@H](CC(C)C)NC(=O)[C@H](CCCCN)NC(=O)[C@H](Cc2ccccc2)NC1=O)C(C)C (Ac-KKRVKKR[S5]FKL[S5]K[S5]YWR[S5]LKKPV[Arg(Nω-βLac)]-NH2; staple (Z) 8-12, 14-18)",MIC,[1],1.1 µg/mL
same,MIC,[2],1.1 µg/mL
same,HC50 at 1 h,[3],87.6 µg/mL
same,Activity,[4],Active
same,Activity,[5],Active; Compound Exhibited Brighter Red
same,Activity,[6],Active; Compound Exhibited Brighter Red
same,Activity,[7],Active
same,Activity,[8],Active
same,Activity,[9],Active
same,Activity,[10],Active
same,Activity,[11],Active
same,Activity,[12],Active
same,Activity,[13],Active
same,Activity,[14],Dose-dependent-effect
same,Activity,[15],Dose-dependent-effect
same,Activity,[16],98.18%
same,Activity,[17],inactive
same,Activity,[18],Toxic
same,Activity,[19],Active; Model Group Showed Yellowish Compared With The Wounds Treated With Compound
same,Activity,[20],Active
same,Activity,[21],Active
same,Activity,[22],Active
same,Activity,[23],Active
same,Activity,[24],Active
same,Activity,[25],Active; Compound Showed Superior Therapeutic Effect Than Slp-0
same,Activity,[26],Active; Compound Showed Superior Therapeutic Effect Than Slp-0
same,Activity,[27],Active
same,Activity,[28],Active
same,Activity,[29],Active
same,Activity,[30],Active
same,Activity,[31],Active
